Counter-ions that a name gives are not always drawn. Like-named read-outs stand apart in the source and are kept apart here.
Assays:
Settings in all cases: compound at 10 μM
[1] = molecular target: T1, vesicular monoamine transporter (VMAT2) (Rattus norvegicus, UniProt Q01827); experiment: Competitive radioligand binding assay, VMAT2 transporter (antagonist radioligand)
T1 construct: Rat brain; from tissue; host or cells: rat brain minus cerebellum, membrane fraction
Description: (§1) Compounds of the invention were tested for pharmacological activity in comparison to APC. Eight binding assays were carried out to provide a binding profile for each compound, including binding to dopamine transporter (DAT), norepinephrine transporter (NET), serotonin (5-HT) transporter (SERT), alpha2A adrenergic receptor (Alpha2A), alpha2C adrenergic receptor (Alpha2C), D2S dopamine receptor (D2S), D2L dopamine receptor (D2L), and vesicular monoamine transporter (VMAT2). Competitive binding assays using a radiolabeled ligand were carried out with each compound at 10 μM. The radioligand for each target was as follows: DAT—BTCP, NET—nisoxetine, SERT—imipramine, Alpha2A—yohimbine, Alpha2C—yohimbine, D2S—7-OH-DPAT, D2L—methylspiperone, VMAT2—tetrabenazine. The source of the receptors and transporters were prepared cell membrane fractions.

[2] = molecular target: T2, serotonin (5-HT) transporter (SERT) (Homo sapiens, UniProt P31645); experiment: Competitive radioligand binding assay, 5-HT transporter (antagonist radioligand)
T2 construct: expressed in transfected cells; host or cells: CHO cells (membrane fractions)
Description: as §1

[3] = molecular target: T3, alpha2C adrenergic receptor (Alpha2C) (Homo sapiens, UniProt P18825); experiment: Competitive radioligand binding assay, α2C (antagonist radioligand)
T3 construct: expressed in transfected cells; host or cells: CHO cells (membrane fractions)
T3 sequence (P18825 1-462): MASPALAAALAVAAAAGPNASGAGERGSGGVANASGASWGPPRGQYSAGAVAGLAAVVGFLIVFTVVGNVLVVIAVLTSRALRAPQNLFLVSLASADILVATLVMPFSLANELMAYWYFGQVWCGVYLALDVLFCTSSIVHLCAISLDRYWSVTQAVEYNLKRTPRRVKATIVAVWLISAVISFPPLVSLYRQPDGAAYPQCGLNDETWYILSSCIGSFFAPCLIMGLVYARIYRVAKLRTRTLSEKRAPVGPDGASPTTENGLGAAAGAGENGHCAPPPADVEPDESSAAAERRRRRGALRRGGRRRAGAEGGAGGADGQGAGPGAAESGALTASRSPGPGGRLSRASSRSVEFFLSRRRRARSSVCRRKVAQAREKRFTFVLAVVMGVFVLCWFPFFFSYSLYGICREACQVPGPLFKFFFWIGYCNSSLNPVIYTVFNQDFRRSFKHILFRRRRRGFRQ
Description: as §1

[4] = molecular target: T4, dopamine transporter (DAT) (Homo sapiens, UniProt Q01959); experiment: Competitive radioligand binding assay, dopamine transporter (antagonist radioligand)
T4 construct: expressed in transfected cells; host or cells: CHO cells (membrane fractions)
Description: as §1

[5] = molecular target: T5, norepinephrine transporter (NET) (Homo sapiens, UniProt P23975); experiment: Competitive radioligand binding assay, norepinephrine transporter (antagonist radioligand)
T5 construct: expressed in transfected cells; host or cells: CHO cells (membrane fractions)
Description: as §1

[6] = molecular target: T6, D2L dopamine receptor (D2L) (Homo sapiens, UniProt P14416); experiment: Competitive radioligand binding assay, D2L (antagonist radioligand)
T6 construct: expressed in transfected cells; host or cells: HEK-293 cells (membrane fractions)
Description: as §1

[7] = molecular target: T7, D2S dopamine receptor (D2S) (Homo sapiens, UniProt P14416); experiment: Competitive radioligand binding assay, D2S (agonist radioligand)
T7 construct: expressed in transfected cells; host or cells: HEK-293 cells (membrane fractions)
Description: as §1

[8] = molecular target: T8, alpha2A adrenergic receptor (Alpha2A) (Homo sapiens, UniProt P08913); experiment: Competitive radioligand binding assay, α2A (antagonist radioligand)
T8 construct: expressed in transfected cells; host or cells: CHO cells (membrane fractions)
T8 sequence (P08913 1-465): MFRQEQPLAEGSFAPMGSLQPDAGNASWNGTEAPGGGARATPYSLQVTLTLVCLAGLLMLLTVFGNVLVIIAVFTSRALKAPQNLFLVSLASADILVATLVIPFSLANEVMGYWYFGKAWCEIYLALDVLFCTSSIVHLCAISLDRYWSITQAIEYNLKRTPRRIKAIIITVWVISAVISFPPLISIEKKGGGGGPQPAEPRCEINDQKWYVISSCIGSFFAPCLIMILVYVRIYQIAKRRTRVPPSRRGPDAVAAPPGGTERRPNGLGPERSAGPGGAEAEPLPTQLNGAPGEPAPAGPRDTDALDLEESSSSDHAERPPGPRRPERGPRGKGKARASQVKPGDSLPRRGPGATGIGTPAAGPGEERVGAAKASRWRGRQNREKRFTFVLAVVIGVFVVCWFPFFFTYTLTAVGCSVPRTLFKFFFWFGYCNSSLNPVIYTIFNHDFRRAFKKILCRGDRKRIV
Description: as §1

[9] = 1st individual result, read-out: % inhibition of control specific binding, 1st
[10] = 2nd individual result, read-out: % inhibition of control specific binding, 2nd
[11] = mean, read-out: % inhibition of control specific binding, Mean

T4 sequence (Q01959 whole entry): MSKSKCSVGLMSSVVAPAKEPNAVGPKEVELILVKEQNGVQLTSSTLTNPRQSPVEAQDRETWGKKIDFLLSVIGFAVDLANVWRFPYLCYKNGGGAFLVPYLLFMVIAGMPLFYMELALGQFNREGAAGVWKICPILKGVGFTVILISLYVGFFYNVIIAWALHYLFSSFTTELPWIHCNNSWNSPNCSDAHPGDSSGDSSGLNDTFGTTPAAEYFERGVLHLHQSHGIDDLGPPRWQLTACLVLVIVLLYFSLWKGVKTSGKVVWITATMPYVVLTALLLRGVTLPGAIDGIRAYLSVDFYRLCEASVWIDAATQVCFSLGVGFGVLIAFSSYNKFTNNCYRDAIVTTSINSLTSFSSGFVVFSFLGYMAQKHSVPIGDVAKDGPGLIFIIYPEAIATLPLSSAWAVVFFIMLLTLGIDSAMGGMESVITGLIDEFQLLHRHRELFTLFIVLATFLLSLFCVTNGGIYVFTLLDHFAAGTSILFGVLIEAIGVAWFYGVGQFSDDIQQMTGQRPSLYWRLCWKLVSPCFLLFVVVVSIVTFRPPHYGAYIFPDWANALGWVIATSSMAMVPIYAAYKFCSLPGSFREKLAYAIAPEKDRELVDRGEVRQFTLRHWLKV
T7 sequence (P14416 1-414 isoform P14416-2): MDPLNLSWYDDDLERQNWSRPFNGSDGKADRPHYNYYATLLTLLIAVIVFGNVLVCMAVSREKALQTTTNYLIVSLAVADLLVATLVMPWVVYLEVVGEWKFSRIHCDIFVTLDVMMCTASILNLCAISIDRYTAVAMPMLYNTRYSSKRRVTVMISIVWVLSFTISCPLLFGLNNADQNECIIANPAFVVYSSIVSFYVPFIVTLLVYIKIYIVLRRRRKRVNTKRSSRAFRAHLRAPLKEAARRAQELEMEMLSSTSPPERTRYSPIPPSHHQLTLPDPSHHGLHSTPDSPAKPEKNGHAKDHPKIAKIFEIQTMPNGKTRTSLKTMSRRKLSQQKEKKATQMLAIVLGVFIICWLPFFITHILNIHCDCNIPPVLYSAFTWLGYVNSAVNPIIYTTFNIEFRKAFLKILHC
T2 sequence (P31645 whole entry): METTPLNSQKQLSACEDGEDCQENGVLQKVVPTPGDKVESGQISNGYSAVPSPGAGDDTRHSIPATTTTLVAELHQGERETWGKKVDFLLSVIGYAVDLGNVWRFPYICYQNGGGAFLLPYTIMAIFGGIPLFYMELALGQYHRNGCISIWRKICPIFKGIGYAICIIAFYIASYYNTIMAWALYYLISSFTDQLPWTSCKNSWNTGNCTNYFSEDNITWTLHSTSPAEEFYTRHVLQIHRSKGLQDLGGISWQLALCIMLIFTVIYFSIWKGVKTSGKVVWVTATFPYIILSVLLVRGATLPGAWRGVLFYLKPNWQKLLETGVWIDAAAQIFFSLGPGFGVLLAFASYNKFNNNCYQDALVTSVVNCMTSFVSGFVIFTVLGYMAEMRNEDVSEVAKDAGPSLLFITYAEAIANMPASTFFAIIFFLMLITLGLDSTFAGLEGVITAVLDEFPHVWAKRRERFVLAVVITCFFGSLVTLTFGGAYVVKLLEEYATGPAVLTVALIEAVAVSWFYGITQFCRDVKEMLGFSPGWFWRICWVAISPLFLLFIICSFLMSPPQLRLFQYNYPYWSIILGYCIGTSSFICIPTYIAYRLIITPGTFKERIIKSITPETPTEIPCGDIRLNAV
T5 sequence (P23975 whole entry): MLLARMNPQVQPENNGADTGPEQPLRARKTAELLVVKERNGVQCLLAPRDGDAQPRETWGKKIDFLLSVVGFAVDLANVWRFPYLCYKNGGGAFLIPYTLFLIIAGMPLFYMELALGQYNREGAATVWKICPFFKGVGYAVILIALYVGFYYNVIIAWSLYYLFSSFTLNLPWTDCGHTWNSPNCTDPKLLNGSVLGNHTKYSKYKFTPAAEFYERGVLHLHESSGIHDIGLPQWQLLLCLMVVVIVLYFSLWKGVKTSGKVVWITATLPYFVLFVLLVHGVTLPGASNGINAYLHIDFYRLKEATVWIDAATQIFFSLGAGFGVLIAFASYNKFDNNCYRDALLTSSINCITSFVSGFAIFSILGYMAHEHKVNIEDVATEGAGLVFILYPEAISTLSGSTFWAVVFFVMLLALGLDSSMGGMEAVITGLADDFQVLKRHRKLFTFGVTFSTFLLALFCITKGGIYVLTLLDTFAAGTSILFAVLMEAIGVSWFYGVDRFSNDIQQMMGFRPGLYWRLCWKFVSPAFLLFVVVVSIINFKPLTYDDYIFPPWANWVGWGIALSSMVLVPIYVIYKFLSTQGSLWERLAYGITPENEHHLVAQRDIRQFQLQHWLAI
T6 sequence (P14416 whole entry): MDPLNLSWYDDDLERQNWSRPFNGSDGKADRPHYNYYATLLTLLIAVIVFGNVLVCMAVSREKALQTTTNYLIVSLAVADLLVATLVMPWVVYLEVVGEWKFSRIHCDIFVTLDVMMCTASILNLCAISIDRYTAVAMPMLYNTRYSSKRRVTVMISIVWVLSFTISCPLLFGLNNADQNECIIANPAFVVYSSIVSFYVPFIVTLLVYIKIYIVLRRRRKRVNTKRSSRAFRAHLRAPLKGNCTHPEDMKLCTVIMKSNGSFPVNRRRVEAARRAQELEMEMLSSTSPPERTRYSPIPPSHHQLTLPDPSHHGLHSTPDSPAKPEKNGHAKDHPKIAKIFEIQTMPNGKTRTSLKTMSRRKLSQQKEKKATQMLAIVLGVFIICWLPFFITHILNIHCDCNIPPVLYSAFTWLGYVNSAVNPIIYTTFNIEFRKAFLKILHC
T1 sequence (Q01827 whole entry): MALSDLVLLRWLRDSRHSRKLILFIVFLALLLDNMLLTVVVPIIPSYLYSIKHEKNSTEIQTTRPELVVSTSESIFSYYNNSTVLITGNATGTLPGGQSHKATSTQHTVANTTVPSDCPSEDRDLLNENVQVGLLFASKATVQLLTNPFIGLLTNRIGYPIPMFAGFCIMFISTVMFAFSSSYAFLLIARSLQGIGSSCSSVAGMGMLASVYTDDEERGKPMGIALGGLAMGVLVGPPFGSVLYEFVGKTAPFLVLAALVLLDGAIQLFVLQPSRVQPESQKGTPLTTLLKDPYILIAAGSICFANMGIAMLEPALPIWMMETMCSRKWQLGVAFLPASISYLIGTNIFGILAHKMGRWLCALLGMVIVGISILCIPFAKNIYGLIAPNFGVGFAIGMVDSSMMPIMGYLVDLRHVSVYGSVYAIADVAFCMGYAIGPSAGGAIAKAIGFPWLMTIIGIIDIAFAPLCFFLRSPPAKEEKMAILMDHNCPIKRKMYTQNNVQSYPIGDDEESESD

**Q.** With `NC(=O)CC[C@H](N)Cc1ccccc1` [Compound 4, (S)-4-Amino-5-phenylpentanamide hydrochloride] as the molecule, how does the inhibition at 10 µM ([1]; VMAT2 transporter, single value, read-out: % inhibition of control specific binding, 1st) read?
**A.** Its inhibition at 10 µM is 0%.

**Q.** And the inhibition at 10 µM ([1]; [3H]dihydrotetrabenazine 10 nM, rat brain (minus cerebellum), read-out: % Inhibition of Binding at Each Transporter or Receptor Target, VMAT2)?
**A.** The inhibition at 10 µM was 0%.

**Q.** What about the inhibition at 10 µM ([2]; 5-HT transporter, 1st individual result, read-out: % inhibition of control specific binding, 1st) of the same molecule?
**A.** Its inhibition at 10 µM is -2.9%.

**Q.** What about the inhibition at 10 µM ([2]; 5-HT transporter, 2nd individual result, read-out: % inhibition of control specific binding, 2nd) of the same molecule?
**A.** The inhibition at 10 µM was 1.8%.

**Q.** What about the inhibition at 10 µM ([2]; 5-HT transporter, mean, read-out: % inhibition of control specific binding, Mean) of the same molecule?
**A.** Its inhibition at 10 µM is -0.5%.

**Q.** What about the inhibition at 10 µM ([2]; [3H]imipramine 2 nM, human recombinant (CHO cells), read-out: % Inhibition of Binding at Each Transporter or Receptor Target, SERT) of the same molecule?
**A.** Its inhibition at 10 µM is -0.5%.

**Q.** What about the inhibition at 10 µM [3, 9] of the same molecule?
**A.** Its inhibition at 10 µM is 3.4%.

**Q.** And the inhibition at 10 µM [3, 10]?
**A.** Its inhibition at 10 µM is 2.3%.

**Q.** What about the inhibition at 10 µM [3, 11] of the same molecule?
**A.** Its inhibition at 10 µM is 2.9%.

**Q.** What about the inhibition at 10 µM ([4]; Dopamine transporter, 1st individual result, read-out: % inhibition of control specific binding, 1st) of the same molecule?
**A.** Its inhibition at 10 µM is 52.9%.

**Q.** And the inhibition at 10 µM ([4]; Dopamine transporter, 2nd individual result, read-out: % inhibition of control specific binding, 2nd)?
**A.** Its inhibition at 10 µM is 60%.

**Q.** And the inhibition at 10 µM ([4]; Dopamine transporter, mean, read-out: % inhibition of control specific binding, Mean)?
**A.** Its inhibition at 10 µM is 56.5%.

**Q.** What about the inhibition at 10 µM ([4]; [3H]BTCP 4 nM, human recombinant (CHO cells), read-out: % Inhibition of Binding at Each Transporter or Receptor Target, DAT) of the same molecule?
**A.** Its inhibition at 10 µM is 56.5%.

**Q.** And the “binding to the dopamine transporter (in words)” value ([4]; summary)?
**A.** Its value is “substantial binding”.

**Q.** What about the inhibition at 10 µM ([5]; Norepinephrine transporter, 1st individual result, read-out: % inhibition of control specific binding, 1st) of the same molecule?
**A.** The inhibition at 10 µM was 7%.

**Q.** What about the inhibition at 10 µM ([5]; Norepinephrine transporter, 2nd individual result, read-out: % inhibition of control specific binding, 2nd) of the same molecule?
**A.** Its inhibition at 10 µM is -21.9%.

**Q.** What about the inhibition at 10 µM ([5]; Norepinephrine transporter, mean, read-out: % inhibition of control specific binding, Mean) of the same molecule?
**A.** Its inhibition at 10 µM is -7.5%.

**Q.** And the inhibition at 10 µM ([5]; [3H]nisoxetine 1 nM, human recombinant (CHO cells), read-out: % Inhibition of Binding at Each Transporter or Receptor Target, NET)?
**A.** The inhibition at 10 µM was -7.5%.

**Q.** What about the inhibition at 10 µM ([6]; D2L, 1st individual result, read-out: % inhibition of control specific binding, 1st) of the same molecule?
**A.** Its inhibition at 10 µM is 1.4%.

**Q.** What about the inhibition at 10 µM ([6]; D2L, 2nd individual result, read-out: % inhibition of control specific binding, 2nd) of the same molecule?
**A.** The inhibition at 10 µM was 0.8%.

**Q.** And the inhibition at 10 µM ([6]; D2L, mean, read-out: % inhibition of control specific binding, Mean)?
**A.** The inhibition at 10 µM was 1.1%.

**Q.** What about the inhibition at 10 µM ([6]; [3H]methyl-spiperone 0.3 nM, human recombinant (HEK-293 cells), read-out: % Inhibition of Binding at Each Transporter or Receptor Target, D2L) of the same molecule?
**A.** Its inhibition at 10 µM is 1.1%.

**Q.** What about the inhibition at 10 µM ([7]; D2S, 1st individual result, read-out: % inhibition of control specific binding, 1st) of the same molecule?
**A.** Its inhibition at 10 µM is -8.2%.

**Q.** What about the inhibition at 10 µM ([7]; D2S, 2nd individual result, read-out: % inhibition of control specific binding, 2nd) of the same molecule?
**A.** Its inhibition at 10 µM is -3.7%.

**Q.** And the inhibition at 10 µM ([7]; D2S, mean, read-out: % inhibition of control specific binding, Mean)?
**A.** The inhibition at 10 µM was -6%.

**Q.** What about the inhibition at 10 µM ([7]; [3H]7-OH-DPAT 1 nM, human recombinant (HEK-293 cells), read-out: % Inhibition of Binding at Each Transporter or Receptor Target, D2S) of the same molecule?
**A.** Its inhibition at 10 µM is -6%.

**Q.** And the inhibition at 10 µM [8, 9]?
**A.** Its inhibition at 10 µM is 7.8%.

**Q.** What about the inhibition at 10 µM [8, 10] of the same molecule?
**A.** Its inhibition at 10 µM is -9.3%.

**Q.** What about the inhibition at 10 µM [8, 11] of the same molecule?
**A.** Its inhibition at 10 µM is -0.8%.

From patent publication US11413264B2, “Carbamoyl phenylalaninol analogs and uses thereof” (Jazz Pharmaceuticals Ireland Limited, priority 2017, dated 2022)
